Results as given in patent US7608392B2, “Diagnostic assay for measuring a cell mediated immune response” (priority 2002, dated 2009).
Where “and” joins values, the source holds several entries; their conditions need not be identical. Equal entries are not always repeated.

Key:
Format in all cases: cell-based, human
whole blood [1] = experiment: Whole blood IFN-γ response to antigen with or without dextrose, 24-well plate, Quantiferon-TB ELISA (Example 2)
whole blood [2] = experiment: Whole blood IFN-γ response to HuPPD or Mitogen, 24-well plate versus blood collection tube, Quantiferon-TB ELISA (Example 4)
whole blood [3] = details: blood collection tube, dextrose added; one line per subject; * OD outside the range of the plate reader
whole blood [4] = tested on: whole blood

Row | Substance | Concentration of IFN-γ found for each plasma sample, +Dextrose (whole blood [1]; 24-well plate, 20 hours 37° C., dextrose 2 mg/mL, one line per donor) | Concentration of IFN-γ found for each plasma sample, −Dextrose (whole blood [1]; 24-well plate, 20 hours 37° C., without dextrose, one line per donor) | Fold increase with dextrose (whole blood [1]; IFN-γ +Dextrose 2 mg/mL / −Dextrose, one line per donor) | Change in IFN-γ detected with addition of dextrose (in words) (whole blood [1]; dextrose 2 mg/mL, 24-well plate) | Amount of IFN-γ detected, Mitogen 24-well (whole blood [2]; after subtraction of saline negative control, 24-well plate, one line per donor) | Amount of IFN-γ detected, Mitogen Tube (whole blood [2]; after subtraction of saline negative control, blood collection tube, mean of duplicate tubes, one line per donor) | Mean fold increase, Mitogen Tube/24-well (whole blood [2]; mean over donors) | Mitogen Tube/24-well (whole blood [2]; ratio of IFN-γ, one line per donor) | IFN-γ, In-Tube Method, Mitogen (whole blood [3]) | Mean fold increase, TetTox Tube/24 well (whole blood [4])
1 | phytohemagglutinin [Mitogen] | 122.76 IU/mL and 25.71 IU/mL | 108.72 IU/mL and 28.67 IU/mL | 0.90 and 1.13 | slight increase in IFN-γ detected for one of the donors and a slight decrease for the other | 83.34 IU/mL and 1.13 IU/mL and 10.04 IU/mL and 6.85 IU/mL and 12.32 IU/mL and 8.77 IU/mL and 76.98 IU/mL and 65.02 IU/mL and 8.14 IU/mL and −0.56 IU/mL and 21.79 IU/mL and 30.58 IU/mL and 28.26 IU/mL and 8.10 IU/mL and 2.75 IU/mL and 6.14 IU/mL and 14.05 IU/mL and 2.46 IU/mL and 11.80 IU/mL and 7.69 IU/mL | 61.94 IU/mL and 13.13 IU/mL and 7.95 IU/mL and 3.45 IU/mL and 13.32 IU/mL and 5.29 IU/mL and 68.58 IU/mL and 47.53 IU/mL and 5.80 IU/mL and −0.79 IU/mL and 16.34 IU/mL and 22.52 IU/mL and 19.16 IU/mL and 5.71 IU/mL and 1.88 IU/mL and 3.55 IU/mL and 9.07 IU/mL and 7.91 IU/mL and 8.73 IU/mL and 3.52 IU/mL | 0.73 | 0.74 (3×) and 0.79 and 0.05 and 1.08 and 0.60 and 0.89 and 0.73 and 0.71 (2×) and 0.75 and 0.68 and 0.58 and 0.65 and 3.22 and 0.46 | 52.50 IU/mL and 4.15 IU/mL and 17.377* IU/mL and 5.57 IU/mL and 2.31 IU/mL and 11.77 IU/mL and 21.063* IU/mL and 4.02 IU/mL and 11.23 IU/mL and 17.05* IU/mL | 
2 | tetanus toxoid |  |  |  |  |  |  |  |  |  | 4.5 and 4.51
